# Measurements as given in patent publication US11324178B2, “Wheat having resistance to glyphosate due to alterations in 5-enol- pyruvylshikimate-3 phosphate synthase” (priority 2015, dated 2022).
# Entries after “also recorded” stand apart in the source; their conditions may differ.
# Experiments:
# [1] = molecular target: E. coli EPSPS T97I (Escherichia coli, UniProt P0A6D3, T97I); conditions: Funke et al. 2009; cited from earlier work
# [2] = test system: wheat seeds homozygous for one single preferred EPSPS mutation (T173I B genome, T173I D genome or P177S A genome); assay: Growth chamber germination on MS medium containing glyphosate, shoot and root length; format: in vivo, Triticum aestivum; conditions: 0.1x MS medium, 0.15 mM glyphosate, 10-14 days of development
# Source text: (§1) Plants homozygous for the single preferred mutations (the T173I mutation in the B genome, the T173I mutation in the D genome and the P177S mutation in the A genome) were identified in the M3 seeds. Wild type siblings were also identified and used as controls. Plants that were homozygous for the T173I mutation in the D genome were crossed to plants that were homozygous for the P177S mutation in the A genome to generate double mutant plants.
# (§2) Growth Chamber Studies: Seeds from plants that were homozygous for one of the single preferred mutations and seeds from their wild type sibling control plants were surface sterilized, placed on moist germination paper overnight, and then grown in glass tubes with 0.1× Murashige & Skoog (MS) medium containing 0 or 0.15 mM glyphosate. Germination was performed in a growth chamber under a light condition of 16 hours of light/8 hours of dark of 80 microEinsteins. At 10-14 days of development, shoot and root lengths were measured.
# (§3) Seeds from plants that were homozygous for the double preferred mutations (both T173 I and P177S) were compared to seeds that were homozygous for each of the single preferred mutation for their ability to survive on MS media containing glyphosate. Seeds from their wild type sibling plants were used as […]. Seeds were germinated as described above.
# [3] = test system: wild type sibling control seeds (wheat cultivar Express); assay: as above; format: in vivo, Triticum aestivum; conditions: 0.1x MS medium, 0.15 mM glyphosate, 10-14 days of development
# Source text: as §1, §2, §3
# [4] = test system: wheat seeds homozygous for the double preferred EPSPS mutations (T173I D genome and P177S A genome); assay: as above; format: in vivo, Triticum aestivum; conditions: MS media containing glyphosate, double mutation seeds compared with single mutation seeds
# Source text: as §1, §2, §3
# [5] = test system: maize EPSPS (threonine to isoleucine); conditions: U.S. Pat. No. 6,566,587; cited from earlier work
# Chain of E. coli EPSPS T97I (P0A6D3 whole entry T97I): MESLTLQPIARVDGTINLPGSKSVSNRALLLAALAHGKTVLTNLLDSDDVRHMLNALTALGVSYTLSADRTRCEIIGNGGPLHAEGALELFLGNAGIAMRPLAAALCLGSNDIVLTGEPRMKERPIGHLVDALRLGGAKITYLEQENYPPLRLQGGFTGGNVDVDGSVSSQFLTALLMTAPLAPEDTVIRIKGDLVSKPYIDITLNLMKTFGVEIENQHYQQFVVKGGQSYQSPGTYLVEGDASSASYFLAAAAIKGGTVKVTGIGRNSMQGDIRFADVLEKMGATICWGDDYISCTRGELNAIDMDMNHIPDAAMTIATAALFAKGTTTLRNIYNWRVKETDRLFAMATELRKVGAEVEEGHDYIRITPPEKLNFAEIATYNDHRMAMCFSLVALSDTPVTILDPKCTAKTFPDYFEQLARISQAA
smiles,measurement,setting,value
O=C(O)CNCP(=O)(O)O [glyphosate],sensitivity of mutated enzyme to glyphosate,[1],leads to sensitivity to glyphosate
same,growth (shoot and root length) of seeds on medium containing glyphosate,[2],the majority of seeds with mutations grew well; also recorded: resistant to glyphosate and grew well
same,growth (shoot and root length) of seeds on medium containing glyphosate,[3],for the most part failed to grow
same,growth (shoot and root length) of seeds on medium containing glyphosate,[4],more resistant to glyphosate than seeds that were homozygous for each of the single preferred mutations
same,inhibition of mutated enzyme by glyphosate,[5],reduced inhibition by glyphosate
